Patent US6326516A, “Acetylenic β-sulfonamido and phosphinic acid amide hydroxamic acid TACE inhibitors” (American Cyanamid Company, priority 2000, dated 2001)
Like-named read-outs stand apart in the source and are kept apart here.

Tests used:
[1] = target: TNF-α converting enzyme (TACE) (Homo sapiens, UniProt P78536); assay: TACE inhibition (fluorescent peptidyl substrate); format: biochemical
Method: Using 96-well black microtiter plates, each well receives a solution composed of 10 μL TACE (fmal concentration 1 μg/mL), 70 μL Tris buffer, pH 7.4 containing 10% glycerol (final concentration 10 mM), and 10 μL of test compound solution in DMSO (final concentration 1 μM, DMSO concentration <1%) and incubated for 10 minutes at room temperature. The reaction is initiated by addition of a fluorescent peptidyl substrate (final concentration 100 μM) to each well and then shaking on a shaker for 5 sec.
The reaction is read (excitation 340 nm, emission 420 nm) for 10 min. and the increase in fluorescence over time is plotted as a linear line. The slope of the line is calculated and represents the reaction rate.
(§1) The linearity of the reaction rate is confirmed (r^2 >0.85). The mean (x±sem) of the control rate is calculated and compared for statistical significance (p<0.05) with drug-treated rates using Dunnett's multiple comparison test. Dose-response relationships can be generate using multiple doses of drug and IC50 values with 95% CI are estimated using linear regression.

THP-1 cells = assay: Human Monocytic THP-1 Cell Differentiation Assay for Soluble Proteins (THP-1 Soluble Protein Assay); format: cell-based
Method: THP-1 cells (from ATCC) are a human monocytic cell line which were obtained from the peripheral blood of a person with acute monocytic leukemia. They can be grown in culture and differentiated into macrophage like cells by stimulation with mitogens.
For the assay, THP-1 cells are seeded from an ATCC stock which was previously grown and frozen back at 5×10^6/ml/vial. One vial is seeded into a T25-flask with 16 mls of RPMI-1640 with glutamax (Gibco) media containing 10% fetal bovine serum, 100 units/ml penicillin, 100 μg/ml streptomycin, and 5×10^-5 M 2-mercapto-ethanol (THP-1 media). Each vial of cells are cultured for about two weeks prior to being used for an assay and then are used for only 4 to 6 weeks to screen compounds. Cells are subcultured on Mondays and Thursdays to a concentration of 1×10^5/ml.
To perform an assay, the THP-1 cells are co-incubated in a 24 well plate with […] of a 24 mg/ml stock of Lipopolysacharide (LPS) (Calbiochem Lot# B13189) at 37° C. in 5% CO2 at a concentration of 1.091×10^6 cells/ml (1.1 ml/well) for a total of 24 hours. At the same time, […] of drug, vehicle or THP-1 media is plated in appropriate wells to give a final volume of 1.2 ml/well. Standard and test compounds are dissolved in DMSO at a concentration of 36 mM and diluted from here to the appropriate concentrations in THP-1 media and added to the wells at the beginning of the incubation period to give final concentrations of […], 300 nM, and 100 nM. Cell exposure to DMSO was limited to 0.1% final concentration. Positive control wells were included in the experiment which had mitogen added but no drug. Vehicle control wells were included as well, which were identical to the positive control wells, except that DMSO was added to give a final concentration of 0.083%. Negative control wells were included in the experiment which had vehicle but no mitogen or drug added to the cells. Compounds can be evaluated for their effect on basal (non-stimulated) shedding of the receptors by replacing the LPS with […] of THP-1 media. Plates are placed into an incubator set at 5% CO2 and at 37° C. After 4 hours of incubation, […] of tissue culture supernatant (TCS) is removed for use in an TNF-α ELISA. Following 24 hours of incubation, […] of TCS is removed and used for analysis in TNF-R p75/80, TNF-R p55/60 and IL-8 ELISAs.
In addition, at the 24 hours timepoint, and the cells for each treatment group are collected by resuspension in 500 μl/well of THP-1 media and transferred into a FACS tube. Two ml/tube of a 0.5 mg/ml stock of propidium iodide (PI) (Boerhinger Mannheim cat. # 1348639) is added. The samples are run on a Becton Dickinson FaxCaliber FLOW cytometry machine and the amount of dye taken up by each cell is measured in the high red wavelength (FL3). Only cells with compromised membranes (dead or dying) can take up PI. The percent of live cells is calculated by the number of cells not stained with PI, divided by the total number of cells in the sample. The viability values calculated for the drug treated groups were compared to the viability value calculated for the vehicle treated mitogen stimulated group ("vehicle positive control") to determine the "percent change from control". This "percent change from control" value is an indicator of drug toxicity.
The quantity of soluble TNF-α, TNF-R p75/80 and TNF-R p55/60 and IL-8 in the TCS of the THP-1 cell cultures are obtained with commercially available ELISAs from R&D Systems, by extrapolation from a standard curve generated with kit standards. The number of cells that either take up or exclude PI are measured by the FLOW cytometry machine and visualized by histograms using commercially available Cytologic software for each treatment group including all controls. […]

MMP-1 = target: T1, MMP-1 (Homo sapiens, UniProt P03956); assay: MMP-1 inhibition (thiopeptide or fluorescent peptide substrate); format: biochemical
T1 sequence (P03956 100-469): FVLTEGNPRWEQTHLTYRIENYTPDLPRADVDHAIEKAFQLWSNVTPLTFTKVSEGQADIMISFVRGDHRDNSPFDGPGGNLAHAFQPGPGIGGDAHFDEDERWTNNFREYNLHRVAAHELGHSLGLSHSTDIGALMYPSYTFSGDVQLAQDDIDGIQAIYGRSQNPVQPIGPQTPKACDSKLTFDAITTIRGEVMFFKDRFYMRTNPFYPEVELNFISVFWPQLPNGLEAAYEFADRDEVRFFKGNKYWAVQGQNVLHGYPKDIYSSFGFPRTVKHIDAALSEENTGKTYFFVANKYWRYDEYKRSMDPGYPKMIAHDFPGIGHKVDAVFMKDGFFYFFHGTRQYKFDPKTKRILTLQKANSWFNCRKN
Method: (§2) The enzyme activity is measured by the rate of the color increase. The thiopeptide substrate is made up fresh as a 20 mM stock in 100% DMSO and the DTNB is dissolved in 100% DMSO as a 100 mM stock and stored in the dark at room temperature. Both the substrate and DTNB are diluted together to 1 mM with substrate buffer (50 mM HEPES pH 7.5, 5 mM CaCl2) before use. The stock of enzyme is diluted with buffer (50 mM HEPES, pH 7.5, 5 mM CaCl2, 0.02% Brij) to the desired final concentration. The buffer, enzyme, vehicle or inhibitor, and DTNB/substrate are added in this order to a 96 well plate (total reaction volume of 200 μl) and the increase in color is monitored spectrophotometrically for 5 minutes at 405 nm on a plate reader and the increase in color over time is plotted as a linear line.
(§3) Alternatively, a fluorescent peptide substrate is used. In this test procedure, the peptide substrate contains a fluorescent group and a quenching group. Upon cleavage of the substrate by an MMP, the fluorescence that is generated is quantitated on the fluorescence plate reader. The assay is run in HCBC assay buffer (50 mM HEPES, pH 7.0, 5 mM Ca^+2, 0.02% Brij, 0.5% Cysteine), with human recombinant MMP-1, MMP-9, or MMP-13. The substrate is dissolved in methanol and stored frozen in 1 mM aliquots. For the assay, substrate and enzymes are diluted in HCBC buffer to the desired concentrations. Compounds are added to the 96 well plate containing enzyme and the reaction is started by the addition of substrate. The reaction is read (excitation 340 nm, emission 444 nm) for 10 min. and the increase in fluorescence over time is plotted as a linear line.
as §1, with “For either the thiopeptide or fluorescent peptide test procedures, the slope of the line is calculated and represents the reaction rate. The linearity” for “The linearity”, “can be generated using multiple” for “can be generate using multiple”

MMP-9 = MMP-9 (Homo sapiens, UniProt P14780); assay: MMP-9 inhibition (thiopeptide or fluorescent peptide substrate); format: biochemical
Method: as §2, §3
as §1, with “For either the thiopeptide or fluorescent peptide test procedures, the slope of the line is calculated and represents the reaction rate. The linearity” for “The linearity”, “can be generated using multiple” for “can be generate using multiple”

MMP-13 = MMP-13 (Homo sapiens, UniProt P45452); assay: MMP-13 inhibition (thiopeptide or fluorescent peptide substrate); format: biochemical
Method: as §2, §3
as §1, with “For either the thiopeptide or fluorescent peptide test procedures, the slope of the line is calculated and represents the reaction rate. The linearity” for “The linearity”, “can be generated using multiple” for “can be generate using multiple”

TNF-α converting enzyme (TACE), sequence (P78536 215-824): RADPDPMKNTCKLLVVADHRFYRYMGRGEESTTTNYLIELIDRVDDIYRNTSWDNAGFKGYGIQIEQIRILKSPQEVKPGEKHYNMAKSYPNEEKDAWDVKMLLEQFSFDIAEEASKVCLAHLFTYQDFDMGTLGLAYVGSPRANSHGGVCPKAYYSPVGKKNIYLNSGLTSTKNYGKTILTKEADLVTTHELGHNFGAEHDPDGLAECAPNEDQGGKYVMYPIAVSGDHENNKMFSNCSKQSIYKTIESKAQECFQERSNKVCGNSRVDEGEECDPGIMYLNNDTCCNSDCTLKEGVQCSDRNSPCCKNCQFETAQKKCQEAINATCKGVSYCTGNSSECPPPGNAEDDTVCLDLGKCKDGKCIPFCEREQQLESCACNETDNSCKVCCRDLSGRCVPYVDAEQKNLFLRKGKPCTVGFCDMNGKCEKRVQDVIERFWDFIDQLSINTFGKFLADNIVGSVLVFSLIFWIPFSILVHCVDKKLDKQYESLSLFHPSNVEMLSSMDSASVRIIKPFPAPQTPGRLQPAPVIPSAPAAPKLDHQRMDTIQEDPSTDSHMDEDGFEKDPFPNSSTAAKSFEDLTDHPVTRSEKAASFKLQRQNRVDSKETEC
MMP-9, sequence (P14780 94-707): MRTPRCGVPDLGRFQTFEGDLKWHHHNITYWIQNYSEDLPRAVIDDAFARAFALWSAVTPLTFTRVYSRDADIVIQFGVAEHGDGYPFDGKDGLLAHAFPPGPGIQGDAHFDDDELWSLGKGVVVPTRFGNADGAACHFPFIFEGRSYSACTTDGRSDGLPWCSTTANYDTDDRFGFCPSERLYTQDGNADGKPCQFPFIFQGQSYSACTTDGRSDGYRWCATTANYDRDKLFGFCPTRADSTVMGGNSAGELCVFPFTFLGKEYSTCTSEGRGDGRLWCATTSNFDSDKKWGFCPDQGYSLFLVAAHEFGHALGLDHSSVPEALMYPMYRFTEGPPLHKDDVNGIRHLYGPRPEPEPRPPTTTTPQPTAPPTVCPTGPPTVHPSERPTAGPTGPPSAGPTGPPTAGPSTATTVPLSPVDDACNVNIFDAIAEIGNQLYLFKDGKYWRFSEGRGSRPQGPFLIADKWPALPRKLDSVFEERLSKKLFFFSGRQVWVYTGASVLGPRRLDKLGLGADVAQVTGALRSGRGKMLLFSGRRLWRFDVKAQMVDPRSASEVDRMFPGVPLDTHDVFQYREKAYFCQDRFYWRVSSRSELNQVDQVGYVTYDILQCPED

For `CC#CCOc1ccc(S(=O)(=O)N(C)CCC(=O)NO)cc1` [Example 24, 3-({[4-(2-Butynyloxy)phenyl]sulfonyl}(methyl)amino)-N-hydroxypropanamide], the IC50 [1] was 73 nM and the inhibition at 3 µM (THP-1 cells) was 9%.

With `CC#CCOc1ccc(S(=O)(=O)N[C@H]2CCC[C@H]2C(=O)NO)cc1` [Example 26] the IC50 (MMP-1; bounds given in uM) was greater than 1 µM, the IC50 (MMP-9) was 5.06 µM and the IC50 (MMP-13) was 0.672 µM. It also gave an IC50 [1] of 15 nM and an inhibition at 3 µM (THP-1 cells) of 23%.

`CC#CCOc1ccc(S(=O)(=O)N(C)[C@@H]2CCCC[C@H]2C(=O)NO)cc1` [Example 17, (1R,2R)-2-[{[4-(2-Butynyloxy)phenyl]sulfonyl}(methyl)amino]-N-hydroxycyclohexanecarboxamide] showed an IC50 (MMP-1; bounds given in uM) greater than 10 µM, an IC50 (MMP-9; bounds given in uM) greater than 10 µM and an IC50 (MMP-13; bounds given in uM) greater than 10 µM. It also gave an IC50 [1] of 28 nM and an inhibition at 3 µM (THP-1 cells) of 14%.

`CC#CCOc1ccc(S(=O)(=O)N[C@@H]2CCCC[C@H]2C(=O)NO)cc1` [Example 18, (1R,2R)-2-({[4-(2-Butynyloxy)phenyl]sulfonyl}amino)-N-hydroxycyclohexanecarboxamide] was tested, and the IC50 (MMP-1; bounds given in uM) was greater than 10 µM, the IC50 (MMP-9; bounds given in uM) was greater than 10 µM and the IC50 (MMP-13; bounds given in uM) was greater than 10 µM. It also gave an IC50 [1] of 61 nM and an inhibition at 3 µM (THP-1 cells) of 1%.

`CC#CCOc1ccc(S(=O)(=O)N(C)C2C3CCC(C3)C2C(=O)NO)cc1` [Example 42, (1R,2R,3S,4R)-(Cis)-3-({[4-(2-butynyloxy)phenyl]sulfonyl}(methyl)amino)-N-hydroxybicyclo[2.2.1]heptane-2-carboxamide] gave an IC50 (MMP-1; bounds given in uM) of roughly 10 µM, an IC50 (MMP-13) of 1.14 µM and an IC50 [1] of 62 nM. For the same compound, the inhibition at 3 µM (THP-1 cells) was 77%.

`CC#CCOc1ccc(S(=O)(=O)N[C@H]2CCCC[C@H]2C(=O)NO)cc1` (relative stereo) [Example 32, (Cis)-2-[{[4-(2-butynyloxy)phenyl]sulfonyl}amino)-N-hydroxycyclohexanecarboxamide] gave an IC50 (MMP-1; bounds given in uM) greater than 10 µM, an IC50 (MMP-9; bounds given in uM) of roughly 10 µM and an IC50 (MMP-13) of 1.74 µM. It also gave an IC50 [1] of 36 nM and an inhibition at 3 µM (THP-1 cells) of 29%.

For `CC#CCOc1ccc(S(=O)(=O)N(C)[C@H]2CCCC[C@H]2C(=O)NO)cc1` (relative stereo) [Example 36, (Cis)-2-[{[4-(2-butynyloxy)phenyl]sulfonyl}(methyl)amino]-N-hydroxycyclohexanecarboxamide], the IC50 (MMP-1) was 4.23 µM, the IC50 (MMP-9) was 1.32 µM and the IC50 (MMP-13) was 1.82 µM. For the same compound, the IC50 [1] was 53 nM and the inhibition at 3 µM (THP-1 cells) was 23%.

Work on `CC#CCOc1ccc(S(=O)(=O)N(C)[C@H]2CCC[C@H]2C(=O)NO)cc1` [Example 30, (1R,2S)-2-[{[4-(2-Butynyloxy)phenyl]sulfonyl}(methyl)amino]N-hydroxycyclopentanecarboxamide] yielded an IC50 (MMP-1) of 2.77 µM, an IC50 (MMP-9) of 0.383 µM and an IC50 (MMP-13) of 0.308 µM. It also gave an IC50 [1] of 14 nM and an inhibition at 3 µM (THP-1 cells) of 65%.

For `CC#CCOc1ccc(S(=O)(=O)NC2C3CCC(C3)C2C(=O)NO)cc1` [Example 38, (1R,2R,3S,4R)-(Cis)-3-({[4-(2-butynyloxy)phenyl]sulfonyl}amino)-N-hydroxybicyclo[2.2.1]heptane-2-carboxamide], the IC50 (MMP-1; bounds given in uM) was greater than 10 µM, the IC50 (MMP-9; bounds given in uM) was greater than 10 µM and the IC50 (MMP-13; bounds given in uM) was roughly 10 µM. For the same compound, the IC50 [1] was 30 nM and the inhibition at 3 µM (THP-1 cells) was 9%.

`CC#CCOc1ccc(S(=O)(=O)NCCC(=O)NO)cc1` [Example 21, 3-({[4-(2-Butynyloxy)phenyl]sulfonyl}amino)-N-hydroxypropanamide] gave an IC50 [1] of 145 nM and an inhibition at 3 µM (THP-1 cells) of 0%.
